Test results published in patent US6756382B2, “Amide substituted imidazoquinolines” (3M Innovative Properties Company, priority 1999, dated 2004).

What was measured:
interferon (α) [1] = assay: Cytokine induction in human cells: interferon secreted by PBMCs, bioassay (A549 cells challenged with encephalomyocarditis virus); format: cell-based; details: PBMC, incubated 18 to 24 hours, interferon determined using the bioassay method, read-out: Lowest Effective Concentration (μM) Interferon
Excerpt: An in vitro human blood cell system was used to assess cytokine induction by compounds of the invention. Activity is based on the measurement of interferon and tumor necrosis factor (α) (IFN and TNF, respectively) secreted into culture media as described by Testerman et. al. In “Cytokine Induction by the Immunomodulators Imiquimod and S-27609”, Journal of Leukocyte Biology, 58, 365-372 (September, 1995).
Whole blood is collected by venipuncture into EDTA vacutainer tubes from healthy human donors. Peripheral blood mononuclear cells (PBMCs) are separated from whole blood by density gradient centrifugation using Histopaque®-1077 (Sigma Chemicals, St. Louis, Mo.). The PBMCs are suspended at 3-4×10^6 cells/mL in RPMI 1640 medium containing 10% fetal bovine serum, 2 mM L-glutamine and 1% penicillin/streptomycin solution (RPMI complete). The PBMC suspension is added to 48 well flat bottom sterile tissue culture plates (Costar, Cambridge, Mass. or Becton Dickinson Labware, Lincoln Park, N.J.) containing an equal volume of RPMI complete media containing test compound.
The compounds are solubilized in dimethyl sulfoxide (DMSO). The DMSO concentration should not exceed a final concentration of 1% for addition to the culture wells.
The solution of test compound is added at 60 μM to the first well containing RPMI complete and serial (three fold or ten fold) dilutions are made. The PBMC suspension is then added to the wells in an equal volume, bringing the test compound concentrations to the desired range. The final concentration of PBMC suspension is 1.5-2×10^6 cells/mL. The plates are covered with sterile plastic lids, mixed gently and then incubated for 18 to 24 hours at 37° C. in a 5% carbon dioxide atmosphere.
Following incubation the plates are centrifuged for 5-10 minutes at 1000 rpm (˜200×g) at 4° C. The cell culture supernatant is removed with a sterile polypropylene pipet and transferred to sterile polypropylene tubes. Samples are maintained at −30 to −70° C. until analysis. The samples are analyzed for interferon (α) by either ELISA or bioassay and for tumor necrosis factor (α) by ELISA.
Interferon is determined by bioassay using A549 human lung carcinoma cells challenged with encephalomyocarditis. The details of the bioassay method have been described by G. L. Brennan and L. H. Kronenberg in “Automated Bioassay of Interferons in Micro-test Plates”, Biotechniques, June/July, 78, 1983, incorporated herein by reference. Briefly stated the method is as follows: A549 cells are incubated with dilutions of samples or a standard interferon at 37° C. for 24 hours. The incubated cells are then infected with an inoculum of encephalomyocarditis virus. The infected cells are incubated for an additional 24 hours at 37° C. before evaluating for viral cytopathic effect. The viral cytopathic effect is quantified by staining with crystal violet followed by visual scoring of the plates. Results are expressed as alpha reference units/mL based on the value obtained for NIH Human Leukocyte IFN standard.
The table below lists the lowest concentration found to induce interferon and the lowest concentration found to induce tumor necrosis factor for each compound. […] Unless otherwise indicated, the interferon biosynthesis was determined by ELISA.

[2] = test system: tumor necrosis factor (α); assay: Cytokine induction in human cells: tumor necrosis factor (α) secreted by PBMCs, ELISA; format: cell-based; details: PBMC, incubated 18 to 24 hours, TNF determined by ELISA, read-out: Lowest Effective Concentration (μM) Tumor Necrosis Factor
Method in brief: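 Human donor PBMCs at final 1.5-2×10^6 cells/mL in RPMI with 10% FBS incubated 18 to 24 h at 37° C. with serially diluted compound, DMSO at most 1% final. Supernatant TNF-α measured by ELISA; value is the lowest concentration inducing TNF.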

interferon (α) [3] = assay: Cytokine induction in human cells: interferon secreted by PBMCs, ELISA; format: cell-based; details: PBMC, incubated 18 to 24 hours, interferon determined by ELISA, read-out: Lowest Effective Concentration (μM) Interferon
Method in brief: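 Human donor PBMCs at 1.5-2×10^6 cells/mL final in RPMI with 10% FBS, exposed to serially diluted compound (≤1% DMSO) for 18–24 h at 37 °C, 5% CO2. Supernatant interferon (α) measured by ELISA; value is lowest concentration inducing interferon.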

melting point | Compound | minimal effective concentration (interferon (α) [1]) | minimal effective concentration [2] | minimal effective concentration (interferon (α) [3])
– | Nc1nc2ccccc2c2c1ncn2CCCCNC(=O)c1c(F)c(F)c(F)c(F)c1F [Example 68] | 1.11 µM | 10 µM | –
– | Nc1nc2ccccc2c2c1ncn2CCCCNC(=O)c1ccc(F)cc1 [Example 72] | 0.37 µM | 10 µM | –
– | Nc1nc2ccccc2c2c1ncn2CCCCNC(=O)c1c(Cl)cccc1Cl [Example 71] | 0.12 µM | 3.33 µM | –
– | COc1ccc(C(=O)NCCCCn2cnc3c(N)nc4ccccc4c32)cc1 [Example 74] | 0.37 µM | 10 µM | –
– | Nc1nc2ccccc2c2c1ncn2CCCCNC(=O)c1ccccc1Cl [Example 69] | 0.12 µM | 1.11 µM | –
– | CC(C)(C)CC(=O)NCCCCn1cnc2c(N)nc3ccccc3c21 [Example 80] | 1.11 µM | 10 µM | –
– | Nc1nc2ccccc2c2c1ncn2CCCCNC(=O)c1ccc(Cl)cc1 [Example 73] | 0.37 µM | 10 µM | –
– | CC(C)(C)c1ccc(C(=O)NCCCCn2cnc3c(N)nc4ccccc4c32)cc1 [Example 76] | 3.33 µM | – | –
– | Nc1nc2ccccc2c2c1ncn2CCCCNC(=O)C1CCCCC1 [Example 84] | 0.12 µM | 10 µM | –
– | Cc1ccc(C(=O)NCCCCn2cnc3c(N)nc4ccccc4c32)cc1 [Example 77] | 1.11 µM | 10 µM | –
– | Nc1nc2ccccc2c2c1ncn2CCCCNC(=O)C1CCCC1 [Example 82] | 0.12 µM | 10 µM | –
– | Nc1nc2ccccc2c2c1ncn2CCCCNC(=O)c1ccc(C(F)(F)F)cc1 [Example 75] | 1.11 µM | – | –
– | Nc1nc2ccccc2c2c1ncn2CCCCNC(=O)Cc1ccccc1 [Example 78] | 0.12 µM | 10 µM | –
– | Nc1nc2ccccc2c2c1ncn2CCCCNC(=O)/C=C/c1ccccc1 [Example 79] | 0.37 µM | > 30 µM | –
146 to 155 °C | Nc1nc2ccccc2c2c1ncn2CCCCCCNC(=O)c1ccccc1 [Example 23, N^1-[6-(4-Amino-1H-imidazo[4,5-c]quinolin-1-yl)hexyl]benzamide] | – | > 30 µM | 1.11 µM
104 to 106 °C | Nc1nc2ccccc2c2c1ncn2CCCCNC(=O)CCCCC1SCC2NC(=O)NC21 (centres unmarked) [Example 25, N^1-[4-(4-Amino-1H-imidazo[4,5-c]quinolin-1-yl)butyl]-5-(2-oxoperhydrothieno[3,4-d]imidazol-4-yl)pentanamide] | – | > 30 µM | 3.33 µM
192 to 194 °C | Nc1nc2ccccc2c2c1nc(CCCOc1ccccc1)n2CCCNC(=O)c1ccccc1 [Example 194, N-{3-[4-amino-2-(3-phenoxypropyl)-1H-imidazo[4,5-c]quinolin-1-yl]propyl}benzamide] | – | 10 µM | > 30 µM
– | Nc1nc2ccccc2c2c1ncn2CCCCNC(=O)CCC1CCCC1 [Example 83] | 1.11 µM | – | –
173 to 174 °C | CCCc1nc2c(N)nc3ccccc3c2n1CCCCNC(=O)c1ccccc1 [Example 3, N^1-[4-(4-Amino-2-propyl-1H-imidazo[4,5-c]quinolin-1-yl)butyl]benzamide] | – | 1.11 µM | 0.37 µM
214 to 215 °C | CCCCc1nc2c(N)nc3ccccc3c2n1CCCCNC(=O)CCCCC1SCC2NC(=O)NC21 (centres unmarked) [Example 24, N^1-[4-(4-Amino-2-butyl-1H-imidazo[4,5-c]quinolin-1-yl)butyl]-5-(2-oxoperhydrothieno[3,4-d]imidazol-4-yl)pentanamide] | – | 3.33 µM | 0.12 µM
133.4 to 137.5 °C | COCCc1nc2c(N)nc3ccccc3c2n1CCCCCCCCNC(=O)c1ccccc1 [Example 187, N-{8-[4-amino-2-(2-methoxyethyl)-1H-imidazo[4,5-c]quinolin-1-yl]octyl}benzamide] | – | 0.01 µM | 0.01 µM
200 to 201 °C (dec.) | N#Cc1cccc(C(=O)NCCCCn2cnc3c(N)nc4ccccc4c32)c1 [Example 33, N^1-[4-(4-Amino-1H-imidazo[4,5-c]quinolin-1-yl)butyl]-3-cyanobenzamide] | – | > 30 µM | 0.37 µM
295 °C | Nc1nc2ccccc2c2c1ncn2CCNC(=O)c1ccccc1 [Example 13, N^1-[2-(4-Amino-1H-imidazo[4,5-c]quinolin-1-yl)ethyl]benzamide] | – | 3.33 µM | 1.11 µM
– | Nc1nc2ccccc2c2c1ncn2CCCCNC(=O)C1CC1 [Example 81] | 3.33 µM | 30 µM | –
189.4 to 190 °C | CCCCc1nc2c(N)nc3ccccc3c2n1CCCNC(=O)c1ccccc1 [Example 189, N-[3-(4-amino-2-butyl-1H-imidazo[4,5-c]quinolin-1-yl)propyl]benzamide] | – | 0.12 µM | 0.04 µM
